{
  "source": "patent US5340925A",
  "about": "“Normal human growth regulatory receptor for TGF-β” (Oncogen, priority 1992, dated 1994)",
  "key": {"HEPM cells [1]": {"test_system": "HEPM cells", "test": "Stimulation of anchorage independent growth assay (soft agar)", "format": "cell-based, human", "conditions": "50 pM TGF-β1 at plating, colonies enumerated on day 13", "experimental": "FIGS. 3(A) and 3(B) Bioactivity of TGF-β on HEPM cells: stimulation of growth in soft agar. Cells were treated with 50 pM TGF-β1, at the time of plating and colony formation was enumerated on day 13.\nA 0.5 ml base layer of 0.5% agar (Agar Noble; Difco Laboratories, Detroit, Mich.) in growth medium was added to 24-well Costar tissue culture plates 0.5 ml 0.3% agar in growth medium containing 1×10^4 HEPM cells and various concentrations of TGF-β or other test samples was overlaid on the base layer of agar in triplicate wells. The plates were incubated at 37° C. in a humidifed atmosphere of 5% CO2 in air for up to 14 days without refeeding. Colonies were enumerated unfixed and unstained. The number of colonies with more than 6 cells were scored."}, "HEPM cells [2]": {"test_system": "HEPM cells", "test": "Growth stimulation assay: incorporation of 5-[125I]iodo-2'-deoxyuridine into DNA of quiescent HEPM cells", "format": "cell-based, human", "conditions": "66 h + 6 h radionuclide label", "experimental": "FIGS. 1(A) and 1(B) Bioactivity of TGF-β on HEPM cells: incorporation of radionuclide into DNA. Results are presented as percent stimulation vs the picomolar (pM) concentration of TGF-β. Percent stimulation was calculated as follows: treated (cpm)-untreated (cpm)/untreated (cpm) x 100. Panel A: TGF-β1, treatment. Panel B: TGF-β2 treatment.\nHEPM cells (5,000 cells/50 μl ) were subcultured in 96-well tissue culture plates (Falcon 30072) in growth medium comprising minimal essential medium (Gibco, Grand Island, N.Y.) supplemented with 10% heat-inactivated fetal bovine serum, 600 μg/ml L-glutamine, 500 μg/ml penicillin and 500 μg/ml streptomycin for a 24-hour period at 37° C. in a humidified 5% CO2 /95% air atosphere. A nondividing, quiescent state of growth was achieved by subsequent incubation for 48 hours in growth medium supplemented with 0.5% fetal bovine serum. Quiescent cells were then stimulated to proliferate by the addition of fetal bovine serum (10 μl ) and test samples of TGF-β1, or TGF-β2 (50 μl). The cells were incubated an additional 66 hours at 37° C. […] The amount of cell growth was measured by the amount of radionuclide incorporated into the DNA of actively growing cells."}, "[3]": {"test_system": "HEPM cell-surface receptors for TGF-β", "test": "Radioreceptor assay: [125I]-iodo-TGF-β1 in competition with unlabeled TGF-β1, Scatchard analysis", "format": "binding, human", "conditions": "comparison of growth stimulation and receptor occupancy, FIG. 6", "experimental": "(§1) HEPM cells were grown to confluence (1×10^5 cells/well) in 24-well Costar tissue culture plates. Prior to the binding assay, cells were pre-incubated in serum-free growth medium at 37° C. for 4 hours to allow for the dissociation of TGF-β from occupied cells surface receptors. The resulting monolayers were washed 2 times in binding buffer (Dulbecco's MEM+0.1% BSA+25 mM HEPES). 250 μl of binding buffer containing 0.5 μg/ml [^125 I]-iodoTGF-β1, (specific activity of 100 μCi/μg) together with increasing amounts of unlabeled TGF-β1 were added to duplicate wells. Steady state binding was carried out at 4° C. for 3 hours. After incubation cells were washed 3 times with cold binding buffer and solubilized in 200 μl of Triton solution (20 mM HEPES, 1% Triton X-100, 10% glycerol, 0.01% BSA, pH 7.4). Radioactivity was determined using a gamma spectrometer. Non-specific binding was determined in the presence of a 1,000-fold molar excess unlabeled TGF-β1.\nThe radioreceptor assay described in Materials and Methods was used to characterize the affinity and number of cell-surface receptors for TGF-β on HEPM cells. Specific binding of [^125 I]-iodo-TGF-βin these assays was 20% of the total radioligand present. […] Half-maximal displacement of radioligand occurred at 100 pM (2.6 ng/ml) unlabeled TGF-β1. Competitive binding data were plotted according to the method of Scatchard (Scatchard, et al., 1947, Ann. NY Acad Sci 51:660-672) and the results are presented in FIG. 5. A distinctly curvilinear isotherm was obtained indicating the presence of at least two classes of binding sites on HEPM cells. […] Quantitative analysis determined that HEPM cells contain a total of 287,000 TGF-β receptors per cell (55,400 high affinity and 231,600 low affinity sites)."}, "[4]": {"test_system": "TGF-β receptor on HEPM cells", "test": "TGF-β receptor down-regulation in TGF-β1 treated HEPM cells, assessed by radioreceptor assay", "format": "cell-based, human", "conditions": "for Kd: HEPM cells treated 18 hours with 100 pM TGF-β1", "experimental": "as §1\nBriefly, HEPM cells were treated with 100pM TGF-β1, for 18 hours, washed with serum-free medium, and incubated in fresh serum-free medium for 60 minutes to allow for the disassociation of residually bound TGF-β1. The radioreceptor assay described in Materials and Methods was used to assess the extent of receptor down-regulation in the treated cells relative to untreated control cells. […] The combined total receptor down-regulation observed was 57%."}, "[5]": {"conditions": "100 pM TGF-β1, 18 hours, vs control cells"}},
  "note": "Where two headings read alike, the source gives them in different places.",
  "data": [
    {"substance": "TGF-β1: Transforming growth factor-Beta type 1; two identical disulfide linked subunits having molecular weights of 13,000; recombinant material used", "values": [
      {"measurement": "mean colony number in soft agar", "setting": "HEPM cells [1]", "value": "8±1"},
      {"measurement": "ED50 in stimulating the proliferation of HEPM cells (half-maximal growth stimulation)", "setting": "HEPM cells [2]", "value": 0.005, "unit": "nM"},
      {"measurement": "receptors occupied when full biological response is obtained", "setting": "[3]", "value": 20, "unit": "%"},
      {"measurement": "high affinity binding sites in treated cells", "setting": "[4]; 100 pM TGF-β1, 18 hours", "value": "14,000 sites/cell"},
      {"measurement": "low affinity binding sites in treated cells", "setting": "[4]; 100 pM TGF-β1, 18 hours", "value": "108,800 sites/cell"},
      {"measurement": "combined total receptor down-regulation", "setting": "[4]; [5]", "value": 57, "unit": "%"},
      {"measurement": "down-regulation of the high affinity binding sites", "setting": "[4]; [5]", "value": 74, "unit": "%"},
      {"measurement": "down-regulation of the low affinity binding sites", "setting": "[4]; [5]", "value": 53, "unit": "%"},
      {"measurement": "Kd", "setting": "[4]; read-out: kd, high affinity binding sites", "value": 0.04, "unit": "nM"},
      {"measurement": "Kd", "setting": "[4]; read-out: kd, low affinity binding sites", "value": 0.974, "unit": "nM"}
    ]}
  ]
}
